Experimental data: patent US11629135B2 (JUBILANT PRODEL LLC, priority 2017, dated 2023)

target: T1, PD-1/PD-L1 interaction (Homo sapiens, UniProt Q9NZQ7); experiment: PD-1/PD-L1 Homogenous Time-Resolved Fluorescence (HTRF) binding assay; conditions: Biochemical PD1/PD-L1 inhibition
T1 construct: Tag1 or Tag2 (undisclosed kit tag); purchased CisBio 63ADK000CPAPEG
Protocol: PD-L1 Enzyme Assay: Homogenous Time-Resolved Fluorescence (HTRF) Binding Assay
All binding studies were performed using PD-1/PD-L1 Binding Assay Kit from CisBio (Catalog #63ADK000CPAPEG), according to the manufacturer's protocol. The interaction between Tag1-PD-1 and […] was detected by anti-Tag1-Eu^3+ (HTRF donor) and anti-Tag2-XL665 (HTRF acceptor). When the donor and acceptor antibodies were brought to close proximity due to PD-1 and PD-L1 binding, excitation of the donor antibody triggered fluorescent resonance energy transfer (FRET) towards the acceptor antibody, which in turn emitted specifically at 665 nm. This specific signal is positively proportional to PD-1/PD-L1 interaction. The compounds blocking PD-1/PD-L1 interaction will cause a reduction in HTRF signal. The necessary reagents were mixed in the following order: 2 μl compounds (or diluents buffer), 4 μl PD-L1 protein, 4 μl PD-1 protein. After an incubation of 15 minutes, 5 μl of anti-Tag1-Eu^3+ and 5 μl of anti-Tag2-XL665 were added. The plate was sealed and incubated at RT for 1 h. The fluorescence emission was read at two different wavelengths (665 nm and 620 nm) on a BMG PheraStar® multiplate reader. Results were calculated from the 665 nm and 620 nm fluorescence signal and expressed in HTRF ratio=(665 nm/620 nm)×[…].

T1 sequence (Q9NZQ7 19-238 limits assumed): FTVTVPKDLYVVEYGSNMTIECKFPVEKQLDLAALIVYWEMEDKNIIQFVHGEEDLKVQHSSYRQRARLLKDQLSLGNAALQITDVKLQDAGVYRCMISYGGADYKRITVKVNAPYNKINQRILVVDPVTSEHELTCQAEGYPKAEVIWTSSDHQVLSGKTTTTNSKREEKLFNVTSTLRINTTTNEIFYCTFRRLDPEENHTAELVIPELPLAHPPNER

| SMILES | IC50 [nM] |
| --- | --- |
| COc1nc(OCc2cccc(-c3ccccc3)c2C)ncc1CN1CCC[C@@H]2C[C@@]21C(=O)O (racemic) [Compound 48] | > 500 |
| COc1nc(OCc2cccc(-c3ccccc3)c2C)nc(OC)c1CN1CCCC2C[C@]21C(=O)O (single isomer, unassigned) [Compound 4] | < 100 |
| COc1nc(OCc2cccc(-c3ccccc3)c2C)nc(OC)c1CN1CCC[C@@H]2C[C@@]21C(=O)O (single isomer, unassigned) [Compound 5] | 100 to 500 |
| CCOc1nc(OCc2cccc(-c3ccccc3)c2C)ncc1CN1C[C@H](O)CC1C(=O)O (stereo in doubt) [Compound 30, (2R,4R)-1-((4-ethoxy-2-((2-methyl-[1,1′-biphenyl]-3-yl)methoxy)pyrimidin-5-yl)methyl)-4-hydroxypyrrolidine-2-carboxylic acid] | 100 to 500 |
| COc1nc(OCc2cccc(-c3ccc(F)cc3)c2C)ncc1CNCCNC(C)=O [Compound 1, N-(2-(((2-((4′-fluoro-2-methyl-[1,1′-biphenyl]-3-yl)methoxy)-4-methoxypyrimidin-5-yl)methyl)amino)ethyl)acetamide] | > 500 |
| CCOc1nc(OCc2cccc(-c3ccccc3)c2C)ncc1CN(C)CC(=O)O [Compound 2, N-((4-ethoxy-2-((2-methyl-[1,1′-biphenyl]-3-yl)methoxy)pyrimidin-5-yl)methyl)-N-methyl glycine] | > 500 |
| COc1nc(OCc2cccc(-c3ccccc3)c2C)nc(OC)c1CNCCNC(C)=O [Compound 3, N-(2-(((4,6-dimethoxy-2-((2-methyl-[1,1′-biphenyl]-3-yl)methoxy)pyrimidin-5-yl)methyl)amino)ethyl)acetamide] | < 100 |
| CCOc1nc(OCc2cccc(-c3ccccc3)c2C)nc(OCC)c1CNCCNC(C)=O [Compound 6, N-(2-(((4,6-diethoxy-2-((2-methyl-[1,1′-biphenyl]-3-yl)methoxy)pyrimidin-5-yl)methyl)amino)ethyl)acetamide] | 100 to 500 |
| COc1nc(OCc2cccc(-c3ccccc3)c2C)ncc1CN1CCCC[C@H]1C(=O)O [Compound 7, (S)-1-((4-methoxy-2-((2-methyl-[1,1′-biphenyl]-3-yl)methoxy)pyrimidin-5-yl)methyl)piperidine-2-carboxylic acid] | < 100 |
| Cc1c(COc2ncc(CN3CCCC[C@H]3C(=O)O)c(OCc3ccc(F)c(C#N)c3)n2)cccc1-c1ccccc1 [Compound 8, (S)-1-((4-((3-cyano-4-fluorobenzyl)oxy)-2-((2-methyl-[1,1′-biphenyl]-3-yl)methoxy)pyrimidin-5-yl)methyl)piperidine-2-carboxylic acid] | > 500 |
| Cc1c(COc2ncc(CN3CCCC[C@H]3C(=O)O)c(OCC(F)(F)F)n2)cccc1-c1ccccc1 [Compound 9, (S)-1-((2-((2-methyl-[1,1′-biphenyl]-3-yl)methoxy)-4-(2,2,2-trifluoroethoxy)pyrimidin-5-yl)methyl)piperidine-2-carboxylic acid] | > 500 |
| Cc1c(COc2ncc(CN3CCCC[C@H]3C(=O)O)c(OCCCCO)n2)cccc1-c1ccccc1 [Compound 10, (S)-1-((4-(4-hydroxybutoxy)-2-((2-methyl-[1,1′-biphenyl]-3-yl)methoxy)pyrimidin-5-yl)methyl)piperidine-2-carboxylic acid] | 100 to 500 |
| COc1nc(OCc2cccc(-c3ccc4c(c3)OCCO4)c2C)nc(OC)c1CN1C[C@H](O)C[C@H]1C(=O)O [Compound 11, (2S,4R)-1-((2-((3-(2,3-dihydrobenzo[b][1,4]dioxin-6-yl)-2-methylbenzyl)oxy)-4,6-dimethoxypyrimidin-5-yl)methyl)-4-hydroxypyrrolidine-2-carboxylic acid] | < 100 |
| Cc1c(COc2ncc(CN3CCCC[C@H]3C(=O)O)c(OCc3cncc(C#N)c3)n2)cccc1-c1ccccc1 [Compound 12, (S)-1-((4-((5-cyanopyridin-3-yl)methoxy)-2-((2-methyl-[1,1′-biphenyl]-3-yl)methoxy)pyrimidin-5-yl)methyl)piperidine-2-carboxylic acid] | > 500 |
| COc1nc(OCc2cccc(-c3cccc(OCCCN4CCC(F)(F)C4)c3C)c2C)ncc1CN1CCCC[C@H]1C(=O)O [Compound 13, (S)-1-((2-((3′-(3-(3,3-difluoropyrrolidin-1-yl)propoxy)-2,2′-dimethyl-[1,1′-biphenyl]-3-yl)methoxy)-4-methoxypyrimidin-5-yl)methyl)piperidine-2-carboxylic acid] | 100 to 500 |
| COc1nc(OCc2cccc(-c3ccccc3)c2C)ncc1CNCCNC(C)=O [Compound 14, N-(2-(((4-methoxy-2-((2-methyl-[1,1′-biphenyl]-3-yl)methoxy)pyrimidin-5-yl)methyl)amino)ethyl)acetamide] | 100 to 500 |

| SMILES | IC50 [nM] |
| --- | --- |
| COc1nc(OCc2cccc(-c3ccccc3)c2C)ncc1CN1CCCC[C@@H]1C(=O)O [Compound 15, (R)-1-((4-methoxy-2-((2-methyl-[1,1′-biphenyl]-3-yl)methoxy)pyrimidin-5-yl)methyl)piperidine-2-carboxylic acid] | 100 to 500 |
| COc1nc(OCc2cccc(-c3ccc(F)cc3)c2C)ncc1CN1CCCC[C@H]1C(=O)O [Compound 16, (S)-1-((2-((4′-fluoro-2-methyl-[1,1′-biphenyl]-3-yl)methoxy)-4-methoxypyrimidin-5-yl)methyl)piperidine-2-carboxylic acid] | > 500 |
| COc1nc(OCc2cccc(-c3cccc(F)c3)c2C)ncc1CN1CCCC[C@H]1C(=O)O [Compound 17, (S)-1-((2-((3′-fluoro-2-methyl-[1,1′-biphenyl]-3-yl)methoxy)-4-methoxypyrimidin-5-yl)methyl)piperidine-2-carboxylic acid] | 100 to 500 |
| COc1nc(OCc2cccc(-c3cccc(F)c3)c2C)ncc1CNCCNC(C)=O [Compound 18, N-(2-(((2-((3′-fluoro-2-methyl-[1,1′-biphenyl]-3-yl)methoxy)-4-methoxypyrimidin-5-yl)methyl)amino)ethyl)acetamide] | 100 to 500 |
| COc1nc(OCc2cccc(-c3ccccc3F)c2C)ncc1CN1CCCC[C@H]1C(=O)O [Compound 19, (S)-1-((2-((2′-fluoro-2-methyl-[1,1′-biphenyl]-3-yl)methoxy)-4-methoxypyrimidin-5-yl)methyl)piperidine-2-carboxylic acid] | 100 to 500 |
| COc1nc(OCc2cccc(-c3ccccc3F)c2C)ncc1CNCCNC(C)=O [Compound 20, N-(2-(((2-((2′-fluoro-2-methyl-[1,1′-biphenyl]-3-yl)methoxy)-4-methoxypyrimidin-5-yl)methyl)amino)ethyl)acetamide] | > 500 |
| CCOc1nc(OCc2cccc(-c3ccccc3)c2C)ncc1CNCCNC(C)=O [Compound 21, N-(2-(((4-ethoxy-2-((2-methyl-[1,1′-biphenyl]-3-yl)methoxy)pyrimidin-5-yl)methyl)amino)ethyl)acetamide] | > 500 |
| CCOc1nc(OCc2cccc(-c3ccccc3)c2C)ncc1CN1CCCC[C@H]1C(=O)O [Compound 22, (S)-1-((4-ethoxy-2-((2-methyl-[1,1′-biphenyl]-3-yl)methoxy)pyrimidin-5-yl)methyl)piperidine-2-carboxylic acid] | 100 to 500 |
| CCOc1nc(OCc2cccc(-c3ccccc3)c2C)ncc1CNC1(C(=O)O)CC1 [Compound 23, 1-(((4-ethoxy-2-((2-methyl-[1,1′-biphenyl]-3-yl)methoxy)pyrimidin-5-yl)methyl)amino)cyclopropane-1-carboxylic acid] | 100 to 500 |
| CCOc1nc(OCc2cccc(-c3ccccc3)c2C)ncc1CNCCC(=O)O [Compound 24] | > 500 |
| CCOc1nc(OCc2cccc(-c3ccccc3)c2C)ncc1CNC(CO)(CO)CO [Compound 25, 2-(((4-ethoxy-2-((2-methyl-[1,1′-biphenyl]-3-yl)methoxy)pyrimidin-5-yl)methyl)amino)-2-(hydroxymethyl)propane-1,3-diol] | < 100 |
| CCOc1nc(OCc2cccc(-c3ccccc3)c2C)ncc1CN[C@@H](C)CC(=O)O [Compound 27, (S)-3-(((4-ethoxy-2-((2-methyl-[1,1′-biphenyl]-3-yl)methoxy)pyrimidin-5-yl)methyl)amino)butanoic acid] | > 500 |
| CCOc1nc(OCc2cccc(-c3ccccc3)c2C)ncc1CN[C@H](C)C(=O)O [Compound 28, ((4-ethoxy-2-((2-methyl-[1,1′-biphenyl]-3-yl)methoxy)pyrimidin-5-yl)methyl)-D-alanine] | 100 to 500 |
| CCOc1nc(OCc2cccc(-c3ccccc3)c2C)ncc1CNC(CC(N)=O)C(=O)O (centres unmarked) [Compound 29, ((4-ethoxy-2-((2-methyl-[1,1′-biphenyl]-3-yl)methoxy)pyrimidin-5-yl)methyl)asparagine] | 100 to 500 |
| CCOc1nc(OCc2cccc(-c3ccccc3)c2C)ncc1CN1CCC1C(=O)O (centres unmarked) [Compound 31, 1-((4-ethoxy-2-((2-methyl-[1,1′-biphenyl]-3-yl)methoxy)pyrimidin-5-yl)methyl)azetidine-2-carboxylic acid] | 100 to 500 |
| CC(=O)NCCNCc1cnc(OCc2cccc(-c3ccccc3)c2C)nc1OCc1ccccc1 [Compound 32, N-(2-(((4-(benzyloxy)-2-((2-methyl-[1,1′-biphenyl]-3-yl)methoxy)pyrimidin-5-yl)methyl)amino)ethyl)acetamide] | > 500 |
